Test results taken from patent US20210379077A1, “TOPOISOMERASE II CATALYTIC INHIBITOR COMPOUND THERAPEUTICS FOR CANCER TREATMENT, METHODS AND USES” (The University of British Columbia, priority 2018, published 2021).

What was measured:
[1] = biological target: T1, Topoisomerase II (Homo sapiens, UniProt P11388); test: Topoisomerase II inhibition screening (supercoiled plasmid relaxation, then kDNA decatenation); format: biochemical; parameters: key to TOP2 Inhib.: Y is an indication that activity was found; settings: for relative activity among compounds tested in the screening round: medium throughput relaxation and kDNA decatenation assays
T1 construct: purchased TopoGENE (TopoGEN) TG2000H / kit TG1001
Description: In vitro Topo II activity assays—K-DNA decatenation assays were performed using the human Topo II assay kit (TG1001, TopoGENE™) with Etoposide and ICRF193 as poison and catalytic inhibitors respectively. DNA relaxation assays were performed by incubating the supercoiled pHOT™ plasmid with human Topo IIα (TG2000H™, TopoGENE™) at 37 degrees for one hour. Reactions were stopped by adding 10% SDS, EDTA and proteinase K. Plasmid DNAs were separated on DNA agarose gel and stained with ethidium bromide for visualization.
Medium Throughput Screening Assays A supercoiled plasmid relaxation assay was used as a first, course filter to determine candidate small molecules. Small molecule candidates that were sufficiently active in the first round screening were then subject to the kDNA decatenation assay.
Second Round Screening With the discovered active compounds 19 and 23, a new screen was initiated to look for similar molecules. For this, the shape similarity screening program ROCS™^10 was used The compounds chosen for the ROCS™ search was based on the docking conformation of Compound 23. The ZINC-15 library filtered down to 6 million molecules described previously was used for this screening. The top 62 molecules were hand-picked based on their ROCS™ similarity as well as their docking scores. These molecules were ordered and tested with the same medium throughput assays previously described. A large enrichment in the proportion of active molecules was observed, of close to 10-fold relative to the first round, validating the virtual screening pipeline.

[2] = test system: Cancer Cell; test: Cancer cell growth inhibition; format: cell-based; parameters: key: Y is an indication that activity was found
Description: BrDU incorporation and cell proliferation assays—Cell proliferation rates were measured by using the CellTitre™ 96 AqueousOne™ kit (Promega™) and bromodeoxyuridine (BrdU) assay kit (Millipore™) according to the manufacturer's protocol, with minor modifications as we have previously described by Li H. et al.^19

[3] = test system: K562 cells; test: γH2AX Western blot (DNA damage in cells); format: cell-based; settings: 10-20 μM, 4 hours
Description: Cytotoxicity was evaluated by measuring LDH levels from cell culture media; (b) K562 cells were treated with either vehicle or 10-20 μM of Top60, Etoposide and ICRF187 for 4 hours. Whole cell lyses were collected to measure γH2AX levels with vinculin as the loading control; (c) K562 cells were treated with 0, 1, 5, 10, 15 and 20 μM of Top60, 20 μM Etoposide or 20 uM ICRF187 for 48 hours. Cell proliferation rates were determined by MTS assays; and (d) K562 cells were treated with 20 μM of Top60, Etoposide or ICRF187 for 0, 24, 48 and 72 hours. Cell proliferation rates were measured by MTS assays. All results were collected from three independent experiments.
Top60 is a catalytic inhibitor of Topo II To verify that our lead Compound 60(Top60), the formation of ds DNA breaks was assayed both in and outside of cells. To assess whether Top60 causes double stranded DNA breaks outside cells, supercoiled plasmid was incubated with and without Top60 in the presence of Topo II (FIG. 1d). […] Furthermore, H2AXγ protein expression was assessed by Western blot to determine if the lead compound could cause DNA damage in cells, and compared to Etoposide as a control (FIG. 3b). […] To determine if Top60 was capable of intercalating DNA, it was incubated with relaxed plasmid at increasing concentrations and compared with m-AMSA, a known intercalator. […]

T1 sequence (P11388 whole entry): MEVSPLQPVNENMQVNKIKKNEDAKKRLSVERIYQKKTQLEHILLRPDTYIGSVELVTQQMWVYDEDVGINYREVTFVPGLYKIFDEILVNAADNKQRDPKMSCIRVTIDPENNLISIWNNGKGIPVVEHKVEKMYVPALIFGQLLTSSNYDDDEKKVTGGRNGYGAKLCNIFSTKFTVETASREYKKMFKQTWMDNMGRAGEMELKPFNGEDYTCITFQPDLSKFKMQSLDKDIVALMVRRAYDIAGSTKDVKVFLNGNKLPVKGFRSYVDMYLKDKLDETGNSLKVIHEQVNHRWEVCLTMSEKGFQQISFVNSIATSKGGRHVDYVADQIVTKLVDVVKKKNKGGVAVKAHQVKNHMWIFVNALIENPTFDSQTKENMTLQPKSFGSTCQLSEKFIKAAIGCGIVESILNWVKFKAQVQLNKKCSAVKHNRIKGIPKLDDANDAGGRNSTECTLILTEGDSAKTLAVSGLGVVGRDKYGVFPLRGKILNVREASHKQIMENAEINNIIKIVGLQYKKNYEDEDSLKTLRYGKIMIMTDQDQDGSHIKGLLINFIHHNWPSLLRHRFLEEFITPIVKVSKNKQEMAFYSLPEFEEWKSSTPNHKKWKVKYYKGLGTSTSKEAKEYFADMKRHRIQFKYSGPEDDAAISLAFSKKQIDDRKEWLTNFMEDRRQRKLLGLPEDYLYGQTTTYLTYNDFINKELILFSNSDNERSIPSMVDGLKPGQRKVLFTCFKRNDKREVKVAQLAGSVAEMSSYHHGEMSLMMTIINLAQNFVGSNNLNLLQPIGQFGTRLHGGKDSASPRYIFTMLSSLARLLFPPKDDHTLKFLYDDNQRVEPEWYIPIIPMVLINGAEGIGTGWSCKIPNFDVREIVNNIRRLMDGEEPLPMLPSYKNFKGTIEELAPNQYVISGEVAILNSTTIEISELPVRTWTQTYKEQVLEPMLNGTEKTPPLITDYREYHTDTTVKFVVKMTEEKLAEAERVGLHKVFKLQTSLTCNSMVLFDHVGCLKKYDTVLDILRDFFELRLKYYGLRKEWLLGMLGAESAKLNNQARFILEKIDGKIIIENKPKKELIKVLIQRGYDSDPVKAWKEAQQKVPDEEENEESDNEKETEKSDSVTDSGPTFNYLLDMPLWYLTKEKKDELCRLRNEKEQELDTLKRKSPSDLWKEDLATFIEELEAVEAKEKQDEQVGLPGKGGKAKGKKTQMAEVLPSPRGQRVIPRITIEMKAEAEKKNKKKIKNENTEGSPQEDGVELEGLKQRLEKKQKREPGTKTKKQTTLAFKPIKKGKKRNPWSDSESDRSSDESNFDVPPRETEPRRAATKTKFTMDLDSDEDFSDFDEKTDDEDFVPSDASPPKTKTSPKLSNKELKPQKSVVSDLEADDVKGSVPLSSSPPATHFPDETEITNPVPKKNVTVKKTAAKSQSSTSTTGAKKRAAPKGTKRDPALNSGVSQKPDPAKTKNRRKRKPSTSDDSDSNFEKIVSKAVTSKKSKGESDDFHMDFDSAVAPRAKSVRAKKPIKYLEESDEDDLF

| TOP2 Inhib. [1] | relative activity among compounds tested in the screening round [1] | Structure (SMILES) | Cancer Cell Growth Inhib. [2] | DNA damage in cells by H2AXγ protein level [3] |
| --- | --- | --- | --- | --- |
| Y | – | O=C(Nc1ccc(NC(=O)N2CCCCCC2)cc1)c1ccc[nH]c1=S [Compound 75] | Y | – |
| Y | – | CC(Nc1ccc(NC(=O)c2ccc[nH]c2=S)cc1Cl)c1ccccc1 (centres unmarked) [Compound 77] | Y | – |
| Y | – | O=C(Nc1ccc(N2CCN(C(=O)c3ccoc3)CC2)cc1)c1ccc(Cl)c(Cl)c1 [Compound 88] | Y | – |
| Y | – | O=C(Nc1ccc(-n2cc(Br)cn2)nc1)c1ccc2ncsc2c1 [Compound 89] | Y | – |
| Y | – | Cc1ccc(C(=O)Nc2ccc(OC3CCCCC3O)cc2)c(=S)[nH]1 (centres unmarked) [Compound 90] | Y | – |
| Y | – | O=C(Nc1ccc(N2CCc3sccc3C2)nc1)c1cccnc1S [Compound 110] | Y | – |
| Y | – | COc1ccc(Nc2ccc(NC(=O)c3cccnc3S)cc2)cc1 [Compound 112] | Y | – |
| Y | – | CCC(=O)Nc1ccc(Nc2ccc(NC(=O)c3cccnc3S)cc2)cc1 [Compound 113] | Y | – |
| Y | – | CC(Nc1ccc(NC(=O)c2ccc[nH]c2=S)cc1)c1ccccc1 (centres unmarked) [Compound 115] | Y | – |

The remaining lines, values behind:

| Structure (SMILES) | TOP2 Inhib. [1] | relative activity among compounds tested in the screening round [1] | Cancer Cell Growth Inhib. [2] | DNA damage in cells by H2AXγ protein level [3] |
| --- | --- | --- | --- | --- |
| NC1=C(c2nc3ccccc3s2)C(=O)CN1/N=C\c1ccc(O)c(O)c1 [Compound 19] | Y | most active | Y | – |
| CC(C)CC(=O)Nc1ccc(NC(=O)c2ccc[nH]c2=S)cc1 [Compound 23] | Y | most active | Y | – |
| O=C(Nc1ccc(CN2CCCC2)cc1)c1ccc[nH]c1=S [Compound 62] | Y | – | Y | – |
| COc1cccc(Oc2ccc(NC(=O)c3ccc[nH]c3=S)cc2)c1 [Compound 63] | Y | – | Y | – |
| CCC(=O)Nc1ccc(NC(=O)c2ccc[nH]c2=S)cc1 [Compound 64] | Y | – | Y | – |
| N#Cc1ccc(Oc2ccc(NC(=O)c3ccc[nH]c3=S)cc2)cc1 [Compound 65] | Y | – | Y | – |
| CC(NC(=O)OC(C)(C)C)c1ccc(NC(=O)c2ccc[nH]c2=S)cc1 (centres unmarked) [Compound 67] | Y | – | Y | – |
| COc1ccc(Sc2ccc(NC(=O)c3ccc[nH]c3=S)cc2)cc1 [Compound 68] | Y | – | Y | – |
| O=C(Nc1ccc(NC2CCCC2)cc1)c1ccc[nH]c1=S [Compound 70] | Y | – | Y | – |
| CSc1ccccc1C(=O)Nc1ccc(NC(=O)CC(C)C)cc1 [Compound 72] | Y | – | Y | – |
| CC(C(C)N1CC(=O)NC(=O)C1)N1CC(=O)NC(=O)C1 (centres unmarked) [ICRF, 4-[2-(3,5-Dioxo-1-piperazinyl)-1-methylpropyl]piperazine-2,6-dione, reference compound] | – | – | – | do not cause DNA damage |
